Laboratory results from patent US7258882B2, “System for maintaining fresh quality and safe food attributes of minimally processed produce” (priority 2002, dated 2007).

Test system: total aerobic population
Test: Total aerobic plate count of washed, packaged and stored mushrooms
Source text: Mushrooms were either 1) untreated (unwashed), that is, left as picked; 2) sodium metabisulfite (sulfite treated) washed. Mushrooms were water rinsed with tap water for 2 seconds then processed through 2 consecutive dip tanks containing 500 ppm sodium metabisulfite in solution; or 3) Washed using the herein disclosed process (new wash) specifically as follows: Mushrooms were conveyed on a slotted conveyor belt and sprayed with tap water for 2 seconds. They dropped into a series of two dip tanks containing 3% (w/v) sodium erythorbate, 0.15% (w/v) disodium EDTA, 0.15% (w/v) calcium chloride. Total residence time was 30 seconds. The whole mushrooms were then treated by dipping in water containing 2 ppm ozone (15 second exposure) followed immediately by 10 second exposure to ultraviolet lamp. Half of the mushroom were sliced and again exposed to 10 seconds of ultraviolet lamp. The mushrooms were packaged and stored at either 35, 45 or 55 degrees Fahrenheit and analyzed microbiologically at day 0, 3, 6, and 9 for total aerobic plate count with a sensitivity of 1,000 cfu/gram, and day 3,6 and 9 for organoleptic properties including degree of whiteness, amount of veil opening, and overall salability/quality. Storage at 45 and 55 degrees Fahrenheit represent physiologically stressful conditions and will illustrate benefits of treatments to a greater extent than 35 degree F. storage. For all examples, data was analyzed statistically using single factor ANOVA and Student's T-test preparing two groups and assuming equal variances. All data was analyzed at 95% confidence levels. Mushrooms were either 1) Mushrooms were washed with water (2-3 second drench with tap water) then processed through 2 consecutive dip tanks containing an aqueous solution of 500 ppm sodium metabisulfite (sulfite treated); or 2) Washed using the herein disclosed process (new wash) specifically as follows: Mushrooms were conveyed on a slotted conveyor belt and sprayed with tap water for […]. They dropped into a series of two dip tanks containing 3% (w/v) sodium erythorbate, 0.15% (w/v) disodium EDTA, 0.15% (w/v) calcium chloride. Total residence time was 30 seconds. The whole mushrooms were then treated with 2 ppm ozone spray followed by 10 second exposure to ultraviolet lamp. Half of the mushroom were sliced and again exposed to 10 seconds of ultraviolet lamp. The mushrooms were packaged and stored at either 35, 45 or 55 degrees Fahrenheit. 35 degree F. stored samples were analyzed at day 0, 2, 6, and 9 and 14 for total aerobic plate count. Both 35 and 45 degree F. stored samples were analyzed on day 2, 6, 9 and 14 for organoleptic properties including degree of whiteness, amount of veil opening, and overall salability/quality. Storage at 45 degrees Fahrenheit represent physiologically stressful conditions and will illustrate benefits of treatments to a greater extent than 35 degree F. storage. Mushrooms were either 1) untreated (unwashed), that is, left as picked; 2)sodium metabisulfite (sulfite treated) washed. Mushrooms were water rinsed with tap water for 5 seconds then processed through 2 consecutive dip tanks containing 500 ppm sodium metabisulfite; or 3)Washed using the herein disclosed process (new wash) specifically as follows: Mushrooms were conveyed on a slotted conveyor belt and sprayed with tap water for 2 seconds. They dropped into a series of two dip tanks containing 3% (w/v) sodium erythorbate, 0.3% (w/v) sodium chloride, 0.3% (w/v) calcium chloride. Total residence time was 30 seconds. In the third treatment (new wash 1) the whole mushrooms were then treated with 2 ppm ozone spray followed immediately by 10 second exposure to ultraviolet lamp. New wash 2 mushrooms were treated as described above but was treated only with ozone, no ultraviolet light. New wash 3 mushrooms were treated with 7 seconds of ultraviolet light, no ozone. New wash 4 mushrooms were treated with ozone and ultraviolet light simultaneously. […]

For O=S([O-])S(=O)(=O)[O-].[Na+].[Na+] [sulfite treated, sodium metabisulfite], the Total plate count (Experiment 1, 35 degrees Fahrenheit, sliced, Day 0) was 178,805 cfu/g, the Total plate count (Experiment 1, 35 degrees Fahrenheit, sliced, Day 3) was 12,344,021 cfu/g and the Total plate count (Experiment 1, 35 degrees Fahrenheit, sliced, Day 6) was 31345339 cfu/g. The Total plate count (Experiment 1, 35 degrees Fahrenheit, sliced, Day 9) was 383205051 cfu/g, the Total plate count (Experiment 1, 35 degrees Fahrenheit, whole, Day 0) was 299,999 cfu/g and the Total plate count (Experiment 1, 35 degrees Fahrenheit, whole, Day 3) was 3,849,234 cfu/g. The Total plate count (Experiment 1, 35 degrees Fahrenheit, whole, Day 6) was 20709887 cfu/g, the Total plate count (Experiment 1, 35 degrees Fahrenheit, whole, Day 9) was 31562526 cfu/g and the Total plate count (Experiment 1, 45 degrees Fahrenheit, sliced, Day 3) was 69,673,049 cfu/g. The Total plate count (Experiment 1, 45 degrees Fahrenheit, whole, Day 3) was 216,318,555 cfu/g, the Total plate count (Experiment 1, 55 degrees Fahrenheit, sliced, Day 3) was 381,362,639 cfu/g and the Total plate count (Experiment 1, 55 degrees Fahrenheit, whole, Day 3) was 145,637,959 cfu/g. For the same compound, the Total plate count (Experiment 2, 35 degrees Fahrenheit, sliced, Day 0) was 168,922 cfu/g, the Total plate count (Experiment 2, 35 degrees Fahrenheit, sliced, Day 2) was 736,188 cfu/g and the Total plate count (Experiment 2, 35 degrees Fahrenheit, sliced, Day 6) was 6,101,012 cfu/g. For the same compound, the Total plate count (Experiment 2, 35 degrees Fahrenheit, sliced, Day 9) was 7,976,377 cfu/g, the Total plate count (Experiment 2, 35 degrees Fahrenheit, sliced, Day 14) was 702,413,006 cfu/g and the Total plate count (Experiment 2, 35 degrees Fahrenheit, whole, Day 0) was 24,188 cfu/g. The Total plate count (Experiment 2, 35 degrees Fahrenheit, whole, Day 2) was 59,492 cfu/g, the Total plate count (Experiment 2, 35 degrees Fahrenheit, whole, Day 6) was 428,579 cfu/g and the Total plate count (Experiment 2, 35 degrees Fahrenheit, whole, Day 9) was 734,285 cfu/g. For the same compound, the Total plate count (Experiment 2, 35 degrees Fahrenheit, whole, Day 14) was 253,940,711 cfu/g, the “Total Plate Count Sliced” value (Experiment 3, sliced, within 18 hours of processing) was 918,987 cfu/gram and the “Total Plate Count Whole” value (Experiment 3, whole, within 18 hours of processing) was 352,745 cfu/gram.
